Results: US7605170B2, “8-azabicyclo[3.2.1]octane derivatives” (N.V. Organon, priority 2005, dated 2009)

Key:
Type in all cases: cell-based
[1] = target: T1, human noradrenaline transporter (hNET) (Homo sapiens, UniProt P23975); assay: Assay of monoamine uptake: inhibition of noradrenaline uptake; conditions: MDCK cells expressing hNET; 20 nM [3H]-neurotransmitter mixture; 37° C.; read-out: hNET pEC50 (inhibition of noradrenaline uptake) (converted)
T1 construct: expressed in transfected cells
Protocol: (§1) The in vitro test for the inhibition of dopamine and serotonin uptake was performed in Chinese Hamster Ovary cells expressing the human dopamine transporter (hDAT) or the human serotonin transporter (hSERT). The in vitro test for the inhibition of noradrenaline uptake was performed in Madin Darby Canine Kidney Cells (MDCK) expressing the human noradrenaline transporter (hNET). Briefly, cell lines stably overexpressing the appropriate human transporter were propagated and plated according to standard cell culture techniques. Following plating, cells were left to adhere for either one or two days. A 6-point serial dilution (normally 1E-5M to 1E-10M) of test and reference compounds was prepared, added to the washed cells and incubated for 5 minutes at ambient temperature for dopamine or serotonin transporter overexpressing and 37° C. for noradrenaline overexpressing cells. Next, a final concentration of 20 nM of appropriate neurotransmitter (mixture of [^3H]-neurotransmitter and non-labelled neurtoransmitter) was added and the cells were incubated for three or five minutes at ambient temperature for dopamine or serotonin transporter overexpressing cells or ten minutes at 37° C. for noradrenaline overexpressing cells. Following termination of the assay, Microscint-20 was added directly to the cells and the amount of radioactivity taken up by the cells was estimated by scintillation counting.
(§2) pEC50 values indicating inhibition of monoamine uptake were calculated using standard curve fitting techniques.

[2] = target: T2, human dopamine transporter (hDAT) (Homo sapiens, UniProt Q01959); assay: Assay of monoamine uptake: inhibition of dopamine uptake; conditions: Chinese Hamster Ovary cells expressing hDAT; 20 nM [3H]-neurotransmitter mixture; ambient temperature; read-out: hDAT pEC50 (inhibition of dopamine uptake) (converted)
T2 construct: expressed in transfected cells
T2 sequence (Q01959 whole entry): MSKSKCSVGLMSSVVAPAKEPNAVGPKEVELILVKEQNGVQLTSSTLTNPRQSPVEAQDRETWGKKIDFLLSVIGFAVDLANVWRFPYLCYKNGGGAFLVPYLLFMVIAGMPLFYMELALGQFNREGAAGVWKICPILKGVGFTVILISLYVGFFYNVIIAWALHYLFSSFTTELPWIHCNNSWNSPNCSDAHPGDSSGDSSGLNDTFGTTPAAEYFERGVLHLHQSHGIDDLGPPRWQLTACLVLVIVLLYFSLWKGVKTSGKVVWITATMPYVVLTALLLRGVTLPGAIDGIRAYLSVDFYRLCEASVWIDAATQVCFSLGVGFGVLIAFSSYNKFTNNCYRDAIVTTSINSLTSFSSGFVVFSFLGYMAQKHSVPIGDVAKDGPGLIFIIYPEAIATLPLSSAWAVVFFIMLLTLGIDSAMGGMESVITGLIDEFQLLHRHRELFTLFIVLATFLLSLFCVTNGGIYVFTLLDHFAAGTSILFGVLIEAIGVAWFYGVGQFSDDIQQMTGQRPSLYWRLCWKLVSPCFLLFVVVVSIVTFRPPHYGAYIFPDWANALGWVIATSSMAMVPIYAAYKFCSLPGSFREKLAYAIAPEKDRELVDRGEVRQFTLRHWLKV
Protocol: as §1, §2

[3] = target: T3, human serotonin transporter (hSERT) (Homo sapiens, UniProt P31645); assay: Assay of monoamine uptake: inhibition of serotonin uptake; conditions: Chinese Hamster Ovary cells expressing hSERT; 20 nM [3H]-neurotransmitter mixture; ambient temperature; read-out: hSERT pEC50 (inhibition of serotonin uptake) (converted)
T3 construct: expressed in transfected cells
T3 sequence (P31645 whole entry): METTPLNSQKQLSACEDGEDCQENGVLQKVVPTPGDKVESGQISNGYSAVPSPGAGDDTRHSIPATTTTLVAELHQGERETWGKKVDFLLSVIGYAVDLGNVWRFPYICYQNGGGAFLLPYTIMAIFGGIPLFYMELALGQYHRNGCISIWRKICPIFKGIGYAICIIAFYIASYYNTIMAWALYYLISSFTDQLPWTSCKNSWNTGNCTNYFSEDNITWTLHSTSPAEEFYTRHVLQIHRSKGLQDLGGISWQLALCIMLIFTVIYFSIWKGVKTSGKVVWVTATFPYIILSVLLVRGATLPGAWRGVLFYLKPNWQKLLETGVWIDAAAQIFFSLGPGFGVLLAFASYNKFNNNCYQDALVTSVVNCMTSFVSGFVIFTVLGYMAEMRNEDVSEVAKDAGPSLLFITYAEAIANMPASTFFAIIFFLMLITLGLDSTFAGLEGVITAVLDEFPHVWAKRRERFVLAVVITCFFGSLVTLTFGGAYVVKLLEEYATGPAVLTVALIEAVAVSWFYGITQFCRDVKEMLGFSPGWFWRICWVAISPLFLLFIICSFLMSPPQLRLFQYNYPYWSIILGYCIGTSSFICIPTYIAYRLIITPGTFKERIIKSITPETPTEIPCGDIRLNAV
Protocol: as §1, §2

T1 sequence (P23975 whole entry): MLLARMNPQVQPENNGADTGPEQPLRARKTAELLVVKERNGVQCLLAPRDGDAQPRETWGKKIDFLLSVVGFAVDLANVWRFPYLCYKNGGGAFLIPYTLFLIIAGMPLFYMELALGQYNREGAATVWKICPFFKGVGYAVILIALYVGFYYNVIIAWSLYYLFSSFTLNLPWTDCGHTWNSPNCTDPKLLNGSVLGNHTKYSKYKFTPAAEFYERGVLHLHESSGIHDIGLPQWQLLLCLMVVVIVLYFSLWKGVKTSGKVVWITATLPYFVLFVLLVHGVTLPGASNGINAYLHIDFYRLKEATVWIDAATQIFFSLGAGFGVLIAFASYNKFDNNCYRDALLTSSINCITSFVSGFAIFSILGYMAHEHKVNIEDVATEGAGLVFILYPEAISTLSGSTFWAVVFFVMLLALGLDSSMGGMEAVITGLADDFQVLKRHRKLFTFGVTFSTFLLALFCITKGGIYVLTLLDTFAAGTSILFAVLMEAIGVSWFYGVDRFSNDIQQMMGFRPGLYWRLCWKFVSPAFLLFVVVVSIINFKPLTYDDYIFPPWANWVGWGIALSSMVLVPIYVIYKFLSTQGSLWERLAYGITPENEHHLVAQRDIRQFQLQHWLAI

Structure (SMILES)	EC50 [1]	EC50 [2]	EC50 [3]
c1ccc(Oc2cccc(O[C@H]3C[C@H]4CC[C@@H](C3)N4)c2)cc1 [III.5, 3-endo-(3-Phenoxyphenoxy)-8-azabicyclo[3.2.1]octane]	100 to 1000 nM	< 100 nM	> 1000 nM
FC(F)(F)c1ccccc1-c1cccc(O[C@@H]2C[C@H]3CC[C@@H](C2)N3)c1 [IV.8, 3-exo-(2′-Trifluoromethylbiphenyl-3-yloxy)-8-azabicyclo[3.2.1]octane]	< 100 nM	> 1000 nM	100 to 1000 nM
COc1cc(Oc2ccccc2)cc(O[C@@H]2C[C@H]3CC[C@@H](C2)N3)c1F [IV.9, 3-exo-(2-Fluoro-3-methoxy-5-phenoxyphenoxy)-8-azabicyclo[3.2.1]octane]	< 100 nM	< 100 nM	> 1000 nM
Clc1cc(Oc2ccccc2)cc(O[C@@H]2C[C@H]3CC[C@@H](C2)N3)c1 [IV.19, 3-exo-(3-Chloro-5-phenoxyphenoxy)-8-azabicyclo[3.2.1]octane]	< 100 nM	< 100 nM	> 1000 nM
N#Cc1ccc(-c2cc(C#N)cc(O[C@@H]3C[C@H]4CC[C@@H](C3)N4)c2)nc1 [IX.3, exo 6-(3-(8-Azabicyclo[3.2.1]oct-3-yloxy)-5-cyanophenyl)nicotinonitrile]	> 1000 nM	> 1000 nM	< 100 nM
FC(F)(F)c1ccc(O[C@@H]2C[C@H]3CC[C@@H](C2)N3)cc1-c1ccccc1 [VI.3, 3-exo-(6-Trifluoromethylbiphenyl-3-yloxy)-8-azabicyclo[3.2.1]octane]	> 1000 nM	> 1000 nM	100 to 1000 nM
N#Cc1ccc(-c2cc(C#N)cc(O[C@@H]3C[C@H]4CC[C@@H](C3)N4)c2)cc1 [VI.8, exo 5-(8-Azabicyclo[3.2.1]oct-3-yloxy)-biphenyl-3,4′-dicarbonitrile]	> 1000 nM	> 1000 nM	< 100 nM
